{
  "source": "patent US11771651B2",
  "about": "“Liposomes and uses thereof” (Academia Sinica, priority 2018, dated 2023)",
  "format_in_all_cases": "cell-based, human",
  "key": {"KB cells [1]": {"tested_on": "KB cells", "test": "MTT assay, photo-responsive liposomes", "settings": "DOX apparent concentration, 40 hours incubation", "protocol": "Then, the medium was replaced by the MEM medium (without FBS) containing free DOX, or the MEM medium (without FBS) containing DDL or MDL, in the presence or absence of light irradiation (5 mW/cm^2, 4 minutes), and then incubated at 37° C. for additional 20 hours. The medium was further replaced to MEM with 10% FBS for another 20 hours incubation at 37° C. 20 μl of MTT stock solution (5 mg/ml in PBS) was added to each well incubated at 37° C. for 2 hours, then removed 170 μl of culture medium followed by the addition of 200 μl of DMSO to each well to dissolve the purple formazan product at 37° C. on a 120 rpm reciprocal shaker for 10 minutes. The absorbance of the formazan product in DMSO solution at 540 nm was measured by plate reader so as to estimate cellular viability."}, "KB cells [2]": {"tested_on": "KB cells", "test": "MTT assay, phosphatase-responsive liposomes", "settings": "free DOX, ALP status not stated", "protocol": "In the study of the phosphatase-responsive liposomes, KB cells (2×10^4 cells per well) were seeded on a 96 well plate in DMEM with 10% FBS at 37° C. for 20 hours. Then, the medium was replaced by the MEM medium (without FBS) containing DOX liposome, 3-MDL, 4-MDL, 5-MDL, 6-MDL, 7-MDL or free DOX, with or without ALP (50 U/ml), and then incubated at 37° C. for 20 hours. The medium was further replaced to MEM with 10% FBS for another 20 hour incubation at 37° C. 20 μl of MTT stock solution (5 mg/ml in PBS) was added to each well incubated at 37° C. for 2 hours, then removed 170 μl of culture medium followed by the addition of 200 μl of DMSO to each well to dissolve the purple formazan product at 37° C. on a 120 rpm reciprocal shaker for 10 minutes. The absorbance of the formazan product in DMSO solution at 540 nm was measured by plate reader to estimate cellular viability."}, "KB cells [3]": {"tested_on": "KB cells", "test": "Endogenous ALP-induced liposomal DOX release by flow cytometer", "settings": "25 μM, 20 hours, data not shown", "protocol": "The cell solution (100 μl) were diluted to 1 ml PBS for flow cytometry analysis."}},
  "note": "Several values for one entry are separate records, joined by “and”; a condition that tells them apart may be missing. Identical values can stand only once.",
  "data": [
    {"compound": "COc1cccc2c1C(=O)c1c(O)c3c(c(O)c1C2=O)C[C@@](O)(C(=O)CO)C[C@@H]3O[C@H]1C[C@H](N)[C@H](O)[C@H](C)O1", "note": "[DOX, doxorubicin]", "values": [
      {"measurement": "IC50", "setting": "KB cells [1]; UV (irradiated 4 minutes)", "value": "3 µM and ~3 µM"},
      {"measurement": "IC50", "setting": "KB cells [1]; dark (non-irradiated)", "value": "0.7 µM and ~0.7 µM"},
      {"measurement": "IC50", "setting": "KB cells [2]", "value": 3, "unit": "µM"},
      {"measurement": "DOX uptake (cellular DOX fluorescence)", "setting": "KB cells [3]", "value": 100, "unit": "%"}
    ]}
  ]
}
